Test system: dorsal root ganglia (DRG) sensory neurons
Assay: Calcium imaging of DRG sensory neurons
Type: cell-based, mouse
Procedure: To determine if optovin acts on sensory neurons, the activity of treated and untreated dorsal root ganglia (DRG) sensory neurons isolated from wild type mice were compared. […] TRPA1 channels play important roles in detecting chemical, thermal, and mechanical stimuli in a variety of organisms^34,35.
C57Bl/6 male mice (3-4 weeks old) were decapitated and DRG were dissected into 4° C. Hank's Balanced Salt Solution (HBSS; Gibco), then neurons were dissociated using collagenase (1 mg/mL; Worthington) and dispase (5 mg/mL; Gibco) dissolved in HBSS. Neurons were plated in Neurobasal-A medium (Invitrogen), supplemented with B-27 Supplement (Gibco), L-glutamine (Gibco), and penicillin-streptomycin (Gibco). The neurons were plated onto coverslips coated with 0.1 mg/mL poly-D-lysine (Sigma) and 5 μg/mL laminin (Sigma). After 24 h, neurons were washed with assay buffer (HBSS, supplemented with 9 mM HEPES, 11 mM D-glucose, 0.1% fatty-acid free BSA, pH 7.3) and incubated for 1 h with 2 μM Fura2-AM (Invitrogen) with 0.2% pluronic (Invitrogen) in assay buffer in the dark at room temperature. The neurons were then washed with assay buffer and allowed to equilibrate at room temperature for 30 min prior to imaging. After a 120 s baseline perfusion of assay buffer containing 3.3% DMSO, 100 μM optovin dissolved in the DMSO-assay buffer solution, or the DMSO-assay buffer solution alone as a control, was perfused onto the neurons for a period of 1 min. Fura-2 is activated with UV-light, and the process of imaging Fura-2 was enough to activate the optovin. […] Following this one-minute period, cells were perfused with DMSO-assay buffer to remove the agonist, which was followed by addition of 100 μM mustard oil (in DMSO-assay buffer) to determine the total number of TrpA1-expressing neurons present. Images were acquired on a Nikon Eclipse Ti microscope (Nikon, Melville, N.Y.).

SMILES: Cc1cc(/C=C2/SC(=S)NC2=O)c(C)n1-c1cccnc1 [optovin]
- activation of DRG neurons with light (100 μM optovin, illuminated (Fura-2 imaging)): strongly activated
- activation of DRG neurons in the dark (optovin treatment in the dark): did not occur
